Results reported in patent publication US20100311757A1, “Salarins And Tulearins, Compositions And Uses Thereof” (RAMOT AT TEL-AVIV UNIVERSITY LTD., priority 2007, published 2010).
pIC50: −log10 of the molar value.

How the values were obtained:
UT7 = experiment: MTT colorimetric cell proliferation assay, UT7 cells; format: cell-based, human; conditions: for inhibition of cell growth, dose and time dependence: various concentrations, 24, 48 and 72 hours
Experimental: (§1) The anti-cancer activities of the compounds of the invention have been determined in-vitro in human and mouse leukemia cell lines. The procedure was carried out using the colorimetric methyl thiazol tetrazoliumbromide (MTT) assay for measuring cell proliferation (Carmichael et al., (1987), Cancer Res. 47: 936-942).
(§2) The Human leukemia cell lines K562 (Lozzio and Lozzio (1975) Blood, 45, 321-334) and UT7 (Komatsu et al. (1991), Cancer Res. 51, 341-348) were grown in RPMI 1640 and IMDM medium respectively, supplemented with 10% fetal bovine serum (FBS), 2 mM L-glutamine, 100 ug/ml streptomycin and 100 u/ml penicillin. The murine Ba/F3 cell line stably transfected with the erythropoietin receptor (EPO-R) cDNA (D'Andrea et al., (1991), Mol. Cell. Biol. 11, 1980-1987) was cultured in RPMI medium supplemented with recombinant human EPO (rHuEPO, 0.5 U/ml). UT7 cells were cultured in the presence of 2 U/ml rHuEPO. Cells were maintained at 37° C. in a 5% CO2 humidified incubator.
(§3) Cells (4×10^3) were seeded in triplicate into 96-well, flat-bottom culture plates and grown in the presence of the compounds at different concentrations for 24, 48 and 72 hours. Untreated cells served as control. After incubation with the compound, cell growth was determined using the colorimetric methylthiazole tetrazolium bromide (MTT) assay (Mosmann (1983), J Immunol Methods 65, 55-63). Briefly, MTT was added to a final concentration of 5 μg/ml to each well and further incubated for 4 hours at 37° C. After complete solubilization of the dye by acid/alcohol (0.04 N HCl in 2-propanol), plates were read at 570 nm in an ELISA reader, reference 690 nm. Growth of cells exposed to treatment was calculated as the percent of optical density (OD) of the compound-treated cells to that of the non-treated cells.

[1] = system: Ba/F3 cells expressing the EPO-R; experiment: MTT colorimetric cell proliferation assay, Ba/F3 cells expressing EPO-R; format: cell-based, murine
Experimental: as §1, §2, §3

K562 = experiment: MTT colorimetric cell proliferation assay, K562 cells; format: cell-based, human
Experimental: as §1, §2, §3

[2] = system: UT-7, K562 and Ba/F3 cell lines; experiment: MTT colorimetric cell proliferation assay, statements across the three cell lines; format: cell-based, human and mouse
Experimental: as §1, §2, §3

[3] = system: Ba/F3, K562 and UT7 cell lines; experiment: Cell morphology by phase contrast microscopy; format: cell-based, human and mouse; conditions: 0.01 μM or 0.2 μM, over-night
Experimental: Cells were viewed in phase contrast microscopy. The size bar indicates a size of 15 um.
The potential effects of Salarin C on cell proliferation were also tested. Human leukemic cell lines UT-7 and K562, and the murine pro B cell line Ba/F3 which stably expresses the EPO receptor (EPO-R) were used as targets. […] Salarin C at concentrations of 0.0005-0.5 μg/ml was added to the cells for 24 hours, and cell viability was determined by the MTT assay (FIG. 24B). ˜50% inhibition of cell proliferation was obtained at 0.5 μg/ml (1 μM) of Salarin C for the UT-7 cell line and at 0.05 μg/ml (0.1 μM) for the K562 cell line. […] The effect of Salarin C on cell viability was also observed by microscopy (FIG. 25).

SMILES | inhibition at 1 µg/mL (UT7; Homo sapiens, UT7 cells, 1 μg/ml, 72 h of exposure) [%] | inhibition of cell growth, dose and time dependence (UT7; UT7 cells) | inhibition at 0.5 µg/mL ([1]; Mus musculus, BaF3, Ba/F3 cells expressing EPO-R, 0.5 ug/ml, 72 h of exposure) [%] | inhibition at 1 µM (UT7; Homo sapiens, UT7, UT-7 cells, 0.5 μg/ml (1 μM), 24 hours) [%] | cell viability (UT7; UT-7 cells, 0.5 μg/ml (1 μM), 72 h) | cell viability (K562; 0.5 μg/ml (1 μM), 72 h) | inhibition at 0.1 µM (K562; Homo sapiens, 0.05 μg/ml (0.1 μM), 24 hours) [%] | proliferation ([1]; Ba/F3 cells, 0.1 μM, 24 hours) | cell viability ([1]; Ba/F3 cells, 0.5 μg/ml (1 μM), 72 h) | relative potency ([2]; 0.5 μg/ml, 72 h, three tested cell lines) | anti-proliferative activity, dose dependence ([2]; 0.0005-0.5 μg/ml, 24 hours) | pIC50 ([2]; 24 hours, across the tested cell lines, read-out: effective concentration range (IC50)) | cell viability and morphology by microscopy [3] | inhibition at 0.5 µg/mL (UT7; Homo sapiens, UT7 cells, 0.5 ug/ml, 72 h of exposure) [%] | inhibition at 0.5 µg/mL (K562; Homo sapiens, 0.5 ug/ml, 72 h of exposure) [%] | inhibition of cell growth, dose and time dependence (K562; various concentrations, 24, 48 and 72 hours)
CCCCCCCC(=O)OCC/C=C/C1OC1C1OC(=O)/C=C\C=C\C(=O)N(C(C)=O)C(=O)/C=C(/C)CCC2OC2C1OC(=O)NC(C)=O (centres unmarked) [Salarin A] | 45 | in a dose and time dependent manner | 48 |  |  |  |  |  |  |  |  |  |  |  |  | 
CCCCCCCC(=O)OCC/C=C/C1OC1C1OC(=O)/C=C\C=C\c2nc(oc2C)/C=C(/C)CCC2OC2C1OC(=O)NC(C)=O (centres unmarked) [Salarin C] |  |  |  | ~50 | abolished nearly all viability | abolished nearly all viability | ~50 | completely arrested | abolished nearly all viability | more potent than Salarins A and B and Tulearin A | dose-dependent | 6.00 to 7.00 | lower viability and characteristics of apoptotic cells |  |  | 
CCCCC/C=C/C(C)=C/C1CC(C)C/C=C/CCC(O)C(OC(N)=O)CCC(C)CC(O)C(C)C(=O)O1 (centres unmarked) [Tulearin A] |  | in a dose and time dependent manner |  |  |  |  |  |  |  |  |  |  |  | 35 | 62 | in a dose and time dependent manner
